Reference: article PMC9848300, “Discovery of novel enasidenib analogues targeting inhibition of mutant isocitrate dehydrogenase 2 as antileukaemic agents” (Journal of Enzyme Inhibition and Medicinal Chemistry, 2023)

Key:
[1] = tested on: SK-MEL-5; test: NCI 60 antitumor screening (single dose / five doses); assay type: cell-based; details: Homo sapiens; SK-MEL-5 (melanoma), single dose 10 μM; read-out: Growth inhibition percentage (GI %)
[2] = tested on: MDA-MB-468; test: as above; assay type: cell-based; details: Homo sapiens; MDA-MB-468 (breast cancer), single dose 10 μM; read-out: Growth inhibition percentage (GI %)
[3] = tested on: COLO 205; test: as above; assay type: cell-based; details: Homo sapiens; COLO 205 (colon cancer), single dose 10 μM; read-out: Growth inhibition percentage (GI %)
[4] = tested on: CCRF-CEM; test: as above; assay type: cell-based; details: Homo sapiens; CCRF-CEM (leukaemia), single dose 10 μM; read-out: Growth inhibition percentage (GI %)
[5] = tested on: MOLT-4; test: as above; assay type: cell-based; details: Homo sapiens; MOLT-4 (leukaemia), single dose 10 μM; read-out: Growth inhibition percentage (GI %)
[6] = tested on: UO-31; test: as above; assay type: cell-based; details: Homo sapiens; UO-31 (renal cancer), single dose 10 μM; read-out: Growth inhibition percentage (GI %)
[7] = tested on: MALME-3M; test: as above; assay type: cell-based; details: Homo sapiens; MALME-3M (melanoma), single dose 10 μM; read-out: Growth inhibition percentage (GI %)
[8] = tested on: 786-0; test: as above; assay type: cell-based; details: Homo sapiens, 786-0, 786-0 (renal cancer), single dose 10 μM; read-out: Growth inhibition percentage (GI %)
[9] = tested on: MDA-MB-231/ATCC; test: as above; assay type: cell-based; details: Homo sapiens; MDA-MB-231/ATCC (breast cancer), single dose 10 μM; read-out: Growth inhibition percentage (GI %)
[10] = tested on: HOP-92; test: as above; assay type: cell-based; details: Homo sapiens; HOP-92 (non-small cell lung cancer), single dose 10 μM; read-out: Growth inhibition percentage (GI %)
[11] = tested on: EKVX; test: as above; assay type: cell-based; details: Homo sapiens; EKVX (non-small cell lung cancer), single dose 10 μM; read-out: Growth inhibition percentage (GI %)
[12] = tested on: SK-MEL-28; test: as above; assay type: cell-based; details: Homo sapiens; SK-MEL-28 (melanoma), single dose 10 μM; read-out: Growth inhibition percentage (GI %)
[13] = tested on: ACHN; test: as above; assay type: cell-based; details: Homo sapiens; ACHN (renal cancer), single dose 10 μM; read-out: Growth inhibition percentage (GI %)
[14] = tested on: UACC-257; test: as above; assay type: cell-based; details: Homo sapiens; UACC-257 (melanoma), single dose 10 μM; read-out: Growth inhibition percentage (GI %)
[15] = tested on: SW-620; test: as above; assay type: cell-based, human; details: Homo sapiens; SW-620 (colon cancer), single dose 10 μM; read-out: Growth inhibition percentage (GI %)
[16] = tested on: UACC-62; test: as above; assay type: cell-based; details: Homo sapiens; UACC-62 (melanoma), single dose 10 μM; read-out: Growth inhibition percentage (GI %)
[17] = tested on: A498; test: as above; assay type: cell-based; details: Homo sapiens; A498 (renal cancer), single dose 10 μM; read-out: Growth inhibition percentage (GI %)
[18] = tested on: SN 12C; test: as above; assay type: cell-based; details: Homo sapiens, SN12C; SN 12C (renal cancer), single dose 10 μM; read-out: Growth inhibition percentage (GI %)
[19] = tested on: SF-539; test: as above; assay type: cell-based; details: Homo sapiens; SF-539 (CNS cancer), single dose 10 μM; read-out: Growth inhibition percentage (GI %)
[20] = tested on: K-562; test: as above; assay type: cell-based; details: Homo sapiens, K562; K-562 (leukaemia), single dose 10 μM; read-out: Growth inhibition percentage (GI %)
[21] = tested on: IGROV1; test: as above; assay type: cell-based; details: Homo sapiens, IGROV-1; IGROV1 (ovarian cancer), single dose 10 μM; read-out: Growth inhibition percentage (GI %)
[22] = tested on: SF-268; test: NCI 60 antitumor screening (single dose); assay type: cell-based; details: Homo sapiens; SF-268 (CNS cancer), single dose 10 μM; read-out: Growth inhibition percentage (GI %)
Procedure, shortened: (§1)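 Assessment used the first tier of the NCI 60 screen, one dose of 10 μM per compound. Triplicate experiments gave percent growth of treated cells. Inhibition was then derived as 100 − G%.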

[23] = tested on: NCI-H460; test: NCI 60 antitumor screening (single dose); assay type: cell-based; details: Homo sapiens; NCI-H460 (non-small cell lung cancer), single dose 10 μM; read-out: Growth inhibition percentage (GI %)
Procedure, shortened: as §1

[24] = tested on: OVCAR-3; test: NCI 60 antitumor screening (single dose); assay type: cell-based; details: Homo sapiens; OVCAR-3 (ovarian cancer), single dose 10 μM; read-out: Growth inhibition percentage (GI %)
Procedure, shortened: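 GI% derived as 100 − G% from triplicate growth measurements in the NCI 60 human tumour panel, compound 10 μM, single dose, per NCI protocol.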

[25] = tested on: SR; test: NCI 60 antitumor screening (single dose / five doses); assay type: cell-based; details: Homo sapiens; SR (leukaemia), single dose 10 μM; read-out: Growth inhibition percentage (GI %)
[26] = tested on: HT29; test: as above; assay type: cell-based, human; details: Homo sapiens, HT-29; HT29 (colon cancer), single dose 10 μM; read-out: Growth inhibition percentage (GI %)
[27] = tested on: MDA-MB-435; test: as above; assay type: cell-based; details: Homo sapiens; MDA-MB-435 (melanoma), single dose 10 μM; read-out: Growth inhibition percentage (GI %)
[28] = tested on: SK-MEL-2; test: as above; assay type: cell-based; details: Homo sapiens; SK-MEL-2 (melanoma), single dose 10 μM; read-out: Growth inhibition percentage (GI %)

| Structure (SMILES) | inhibition at 10 µM [1] | inhibition at 10 µM [2] | inhibition at 10 µM [3] | inhibition at 10 µM [4] | inhibition at 10 µM [5] | inhibition at 10 µM [6] | inhibition at 10 µM [7] | inhibition at 10 µM [8] | inhibition at 10 µM [9] | inhibition at 10 µM [10] | inhibition at 10 µM [11] | inhibition at 10 µM [12] | inhibition at 10 µM [13] | inhibition at 10 µM [14] | inhibition at 10 µM [15] | inhibition at 10 µM [16] | inhibition at 10 µM [17] | inhibition at 10 µM [18] | inhibition at 10 µM [19] | inhibition at 10 µM [20] | also measured |
| --- | --- | --- | --- | --- | --- | --- | --- | --- | --- | --- | --- | --- | --- | --- | --- | --- | --- | --- | --- | --- | --- |
| COC(=O)C(Cc1ccccc1)Nc1nc(NC(Cc2ccccc2)C(=O)OC)nc(N2CCOCC2)n1 (centres unmarked) [compound 8c, Methyl 2-({4-[(1-methoxy-1-oxo-3-phenylpropan-2-yl)amino]-6-(morpholin-4-yl)-1,3,5-triazin-2-yl}amino)-3-phenylpropanoate] | 1.32% | -7.75% | -4.56% | -4.54% | -1.03% | 18.8% | -4.87% | -0.43% | -2.54% | -18.5% | -4.54% | -8.72% | -8.95% | -3.35% | -11.7% | 9.82% | -7.4% | -3.62% | 1.99% | 8.42% | inhibition at 10 µM [21]: 1.38%; inhibition at 10 µM [22]: -2.56%; inhibition at 10 µM [23]: -6.88%; inhibition at 10 µM [24]: -11.1%; inhibition at 10 µM [25]: -0.37%; inhibition at 10 µM [26]: -0.61%; inhibition at 10 µM [27]: -4.67%; inhibition at 10 µM [28]: -11% |
| O=C(NNc1nc(NNC(=O)c2ccccc2)nc(N2CCOCC2)n1)c1ccccc1 [compound 8d, N'-[4-(morpholin-4-yl)-6-(phenylhydrazido)-1,3,5-triazin-2-yl]benzohydrazide] | 0.18% | -15.1% | -12.9% | -6.05% | -8.9% | 13.3% | -7.11% | -3.15% | -3.73% | -12.8% | 3.9% | -19.5% | -4.4% | 1.13% | -4.44% | 4.98% | -11% | -6.53% | 2.56% | -6.16% | inhibition at 10 µM [21]: -2.38%; inhibition at 10 µM [22]: -1.5%; inhibition at 10 µM [23]: -1.86%; inhibition at 10 µM [24]: -5.45%; inhibition at 10 µM [25]: 2.07%; inhibition at 10 µM [26]: -12%; inhibition at 10 µM [27]: -2.63%; inhibition at 10 µM [28]: -13.4% |
